Laboratory results as given in patent US10363262B1, “Composition for treating wound comprising gypenoside LXXV” (Intelligent Synthetic Biology Center, priority 2018, dated 2019).

Assays:
HaCaT keratinocytes [1] = test: non-radioactive cell proliferation assay, HaCaT keratinocytes; format: cell-based
Experimental: (§1) Each cell was seeded into a 96-well plate and cultured at 37° C. for 48 hours. The cultured cells were treated with G75, MA, or DMSO at a concentration of 5 μM or 10 μM. After 48 hours, the proliferation of these cells was confirmed using the non-radioactive cell proliferation assay kit (Promega, WI, USA), and migration of these cells was confirmed in the same manner as in Example 1-2 (FIG. 2).

HaCaT keratinocytes [2] = test: MTT analysis of proliferation of HaCaT keratinocytes; format: cell-based; details: 48 hours
Experimental: HaCaT keratinocytes were treated with major ginsenosides (e.g., Rb1, Rd, Re, and Rg1) and other ginsenosides (e.g., C-K, F1, F2, G17, G75, PPD, PPT, Rg2, Rg3, Rh1, and Rh2) at a concentration of 0.01 μM to 20 μM for 48 hours and then subjected to MTT analysis (FIG. 1A). As the control group, DMSO was used.

[3] = compared with ginsenosides having a large size (about 1,000 Da); cited from earlier work
CTGF [4] = test: ELISA assay of CTGF production by human dermal fibroblasts; format: cell-based; details: supernatant of human dermal fibroblasts
CTGF protein = test: western blot of CTGF protein in wound skin tissue; format: in vivo, mouse; details: after 3 days
Experimental: To examine whether the G75 treatment increases the expression level of CTGF protein, each wound was treated with G75, and after 3 days, the skin tissue was collected and subjected to western blot.

HaCaT keratinocytes [5] = test: scratch wound closure assay (migration of HaCaT keratinocytes); format: cell-based
Experimental: Specifically, HaCaT keratinocytes were cultured in a 6-well plate and the plate was scratched using a 200 μL micropipette tip. The remainder was washed with PBS and the cells were cultured for 24 hours, treated with 10 μM ginsenoside or DMSO, and the gap regions were measured (FIG. 1B).
as §1

[6] = system: excision wound mouse model; test: in vivo wound closure activity in excision wound mouse model; details: ICR mice, once a day for 9 days, topical
Experimental: The in vivo wound closure activity was measured in an excision wound mouse model.
Eight-week-old male ICR mice were purchased from Narabiotech (Korea), acclimatized for one week, and used in the experiment. Two full-thickness circular wounds (diameter: 5 mm) were created on the dorsal region of each mouse, and the progressive changes in wound closure were measured relative to the original wound area. G75 (5 μM/wound) or MA (10 μM/wound) was then applied on each wound area once a day for 9 days. DMSO-propylene glycol was used as a vehicle control.

CTGF [7] = test: RNA sequencing, growth factor mRNA level in wound tissue; format: in vivo, mouse; details: third day after treatment, versus vehicle control
Experimental: (§2) To examine the process of G75 involvement in wound recovery, RNA sequencing was performed. After creating an excision wound on the dorsal area of each mouse, the wound was treated with G75 or the vehicle control, and RNA was isolated from the dorsal excisional wound tissue on the third day after the treatment and analyzed. When the p value was 0.05 or below and there was a change of 1.7-fold or greater, the change was considered to significant.
(§3) To confirm the effect of G75 on the growth factors involved in wound healing, the mRNA levels of growth factors were measured based on the results of RNA sequencing analysis.

Angpt1 = test: as above; format: in vivo, mouse; details: third day after treatment, versus vehicle control
Experimental: as §2, §3

Csf2 = test: as above; format: in vivo, mouse; details: third day after treatment, versus vehicle control
Experimental: as §2, §3

Hbegf = test: as above; format: in vivo, mouse; details: third day after treatment, versus vehicle control
Experimental: as §2, §3

Igf1 = test: as above; format: in vivo, mouse; details: third day after treatment, versus vehicle control
Experimental: as §2, §3

Fgf2 = test: as above; format: in vivo, mouse; details: third day after treatment, versus vehicle control
Experimental: as §2, §3

Fgf7 = test: as above; format: in vivo, mouse; details: third day after treatment, versus vehicle control
Experimental: as §2, §3

Fgf10 = test: as above; format: in vivo, mouse; details: third day after treatment, versus vehicle control
Experimental: as §2, §3

Tgf beta1 = test: as above; format: in vivo, mouse; details: third day after treatment, versus vehicle control
Experimental: as §2, §3

Vegf alpha = test: as above; format: in vivo, mouse; details: third day after treatment, versus vehicle control
Experimental: as §2, §3

Tgf alpha = test: as above; format: in vivo, mouse; details: third day after treatment, versus vehicle control
Experimental: as §2, §3

Hgf = test: as above; format: in vivo, mouse; details: third day after treatment, versus vehicle control
Experimental: as §2, §3

[8] = system: dorsal excisional wound tissue; test: RNA sequencing of dorsal excisional wound tissue; format: in vivo, mouse; details: third day after treatment; p 0.05 or below and change of 1.7-fold or greater
Experimental: as §2

human dermal fibroblasts [9] = test: non-radioactive cell proliferation assay, human dermal fibroblasts; format: cell-based; details: 10 μM, 48 hours
Experimental: as §1

human dermal fibroblasts [10] = test: proliferation of human dermal fibroblasts treated with CTGF; format: cell-based

Molecule: CC(C)=CCC[C@](C)(O[C@@H]1O[C@H](CO[C@@H]2O[C@H](CO)[C@@H](O)[C@H](O)[C@H]2O)[C@@H](O)[C@H](O)[C@H]1O)[C@H]1CC[C@]2(C)[C@@H]1[C@H](O)C[C@@H]1[C@@]3(C)CC[C@H](O)C(C)(C)[C@@H]3CC[C@]12C [G75, gypenoside LXXV]
- effects compared with MA at the same concentration (HaCaT keratinocytes [1]; cell proliferation and cell migration, HaCaT keratinocytes and human dermal fibroblasts): superior effects to MA
- cell proliferation effect relative to the control group (HaCaT keratinocytes [2]; 0.01 μM to 20 μM, DMSO control): about 136.8%
- cell proliferation effect (HaCaT keratinocytes [2]; 0.01 μM to 20 μM, compared to other ginsenosides / control): highest cell proliferation effect
- concentration at which the highest cell proliferation effect was shown (HaCaT keratinocytes [2]): 10 µM
- in vivo absorption rate [3]: greater in vivo absorption rate
- amount of CTGF production (CTGF [4]): increased the amount of CTGF production
- expression level of CTGF protein (CTGF protein): significantly increased
- cell migration (HaCaT keratinocytes [5]; Example 2-1, 5 μM): significant effect
- cell migration (HaCaT keratinocytes [5]; Example 2-1, 10 μM): significant effect
- migration effect (gap regions) (HaCaT keratinocytes [5]; HaCaT keratinocytes, 10 μM, compared to DMSO control): highest migration effect
- wound area compared to vehicle control ([6]; 5 μM/wound): wound areas became smaller
- Fold change CTGF mRNA (CTGF [7]): 1.879
- Fold change Angpt1 mRNA (Angpt1): 1.796
- Fold change Csf2 mRNA (Csf2): 5.545
- Fold change Hbegf mRNA (Hbegf): 1.267
- Fold change Igf1 mRNA (Igf1): 1.367
- Fold change Fgf2 mRNA (Fgf2): 8.143
- Fold change Fgf7 mRNA (Fgf7): 1.789
- Fold change Fgf10 mRNA (Fgf10): 1.750
- Fold change Tgf beta1 mRNA (Tgf beta1): 1.392
- Fold change Vegf alpha mRNA (Vegf alpha): 1.281
- Fold change Tgf alpha mRNA (Tgf alpha): 1.504
- Fold change Hgf mRNA (Hgf): 1.191
- number of genes whose expression level was changed [8]: 1048

Molecule: madecassoside [reference compound]
- cell proliferation (human dermal fibroblasts [9]): slight effect
- cell proliferation (HaCaT keratinocytes [1]; HaCaT keratinocytes, 10 μM, 48 hours): slight effect
- wound area compared to vehicle control ([6]; 10 μM/wound): wound areas became smaller

B1: CTGF: connective tissue growth factor, applied to human dermal fibroblasts (protein, UniProt P29279 27-349, looked up)
CCN family member 2: QNCSGPCRCPDEPAPRCPAGVSLVLDGCGCCRVCAKQLGELCTERDPCDPHKGLFCHFGSPANRKIGVCTAKDGAPCIFGGTVYRSGESFQSSCKYQCTCLDGAVGCMPLCSMDVRLPSPDCPFPRRVKLPGKCCEEWVCDEPKDQTVVGPALAAYRLEDTFGPDPTMIRANCLVQTTEWSACSKTCGMGISTRVTNDNASCRLEKQSRLCMVRPCEADLEENIKKGKKCIRTPKISKPIKFELSGCTSMKTYRAKFCGVCTDGRCCTPHRTTTLPVEFKCPDGEVMKKNMMFIKTCACHYNCPGDNDIFESLYYRKMYGDMA
- proliferation compared to the vehicle control (human dermal fibroblasts [10]): higher level of proliferation
